Test results: US11458205B2, “Genetically encoded intrinsically disordered stealth polymers for delivery and methods of using same” (Duke University, priority 2015, dated 2022)

Tested on: MDA-MB-231 human triple negative breast cancer cells
Experiment: In vitro cytotoxicity (MTS) of ZiPP-PTX conjugates
Assay type: cell-based
Conditions: MDA-MB-231, 72 hours of drug treatment, concentration in terms of the drug, read-out: IC50 (concentration of the drug that reduced cell viability by 50%)
Method: In vitro cytotoxicity of ZiPP-PTX conjugates. In vitro cytotoxicity was done on MDA-MB-231 human triple negative breast cancer cells. 3×10^3 cells were seeded per 100 μL of media in Falcon™ 96-well cell culture plates (BD; Franklin Lakes, N.J.). The cells were allowed to adhere for 16-18 hours before being treated with free PTX and ZiPP-PTX at concentrations that ranged from sub-nanomolar to high-micromolar range. After 72 hours of drug treatment, 20 μL of […] (MTS) reagent (CellTiter 96 AQueous™ Promega; Madison, Wis.) was added to each well and incubated for an additional 2 hours. A dose-response curve for free drug and ZiPP-drug conjugate was constructed by measuring the absorbance of each well at 490 nm with a Victor3 microplate reader (Perkin Elmer; Waltham, Mass.). The 50% inhibitory concentration, IC50, was determined by fitting data to the following equation (Andrew MacKay, J., et al. Nat. Mater. 2009, 8, 993-999):
[formula] where V is viability of cells, Ctreatment is drug concentration, and p is slope of the dose response curve. This IC50 value is used to evaluate the potency of the conjugates.
The in vitro cytotoxicity of Zipp-PTX was measured by looking at the cell viability over a range of concentrations as a function of time. […]

`CC(=O)O[C@H]1C(=O)[C@@]2(C)[C@H]([C@H](OC(=O)c3ccccc3)[C@]3(O)C[C@H](OC(=O)[C@H](O)[C@@H](NC(=O)c4ccccc4)c4ccccc4)C(C)=C1C3(C)C)[C@]1(OC(C)=O)CO[C@@H]1C[C@@H]2O` [free drug, Paclitaxel] showed an IC50 of roughly 2 nM.
